Consider one compound from patent US11103467B2, “Method for treating depression” (DEVELCO PHARMA SCHWEIZ AG, priority 2014, dated 2021).

Molecules are shown by their SMILES.

For the data set the following is noted: both, human, serum, iv, 5 mg.

The term AUC(0-inf) denotes the area under the concentration-time curve extrapolated to infinity. A lower AUC(0-inf) goes with low exposure. For orientation: Cmax means the maximum level reached in the sampled fluid or tissue. For orientation: half-life means the time needed for the level to fall by half in the phase considered. Read a low half-life as rapid decline. The compound `CNC1(c2ccccc2Cl)CCCCC1=O` (racemic) [(±)-ketamine, 2-(2-chlorophenyl)-2-(methylamino)cyclohexan-1-one] gave an AUC(0-inf) of 59.9 ± 13.2 ng·h/mL, a Cmax of 33.7 ± 9.74 ng/mL and a half-life of 6.99 ± 5.22 h.
